Values of other authors as cited in US12661351B2, “Stable liquid compositions of posaconazole” (INVENGENE PRIVATE LIMITED, priority 2020, dated 2026).
Where two headings read alike, the source gives them in different places.

CC[C@@H]([C@H](C)O)n1ncn(-c2ccc(N3CCN(c4ccc(OC[C@@H]5CO[C@@](Cn6cncn6)(c6ccc(F)cc6F)C5)cc4)CC3)cc2)c1=O [Posaconazole]
Solubility (aqueous solutions at pH>4): less than 1 mcg/ml
Solubility (strong acidic (aqueous) solutions of pH 1 or lower): about 790 mcg/ml
